In series [1] the target is T1, BMX (Homo sapiens (Human), UniProt P51813). As to the kind of experiment: BMX Z'-LYTE kinase assay. Type of series: biochemical. To be noted: 1 h pre-incubation, Km ATP. The procedure: (§1) BMX, TXK, EGFR, ERBB2, ERBB4, JAK3, BLK kinase activity was measured using the Z′-LYTE assay at Thermo Fisher. A 10-point dose response (final concentration in assay ranged from 10 μM to 0.5 nM in 3-fold dilution per dilution step) was generated with 1 h incubation of the test compound with the kinase prior to initiation of the kinase reaction by the addition of ATP. ATP concentration in the assay was Km ATP for the different kinases. IC50 values are determined by curve fitting of the experimental results at Thermo Fisher.

The subject of series [2] is CYP3A4. As to the kind of experiment: CYP induction, CYP3A4. Format: in vitro ADME.
For series [3], the target named is LIMK1 (Homo sapiens (Human), UniProt P53667). In words: DiscoveRx Kd dose response, LIMK1. Type of series: binding. The protocol: (§2) Kinase profiling was performed with M27 was done at DiscoveRx at a single dose of 1 μM on all available kinases (KINOMEscan). The overall kinase selectivity score is in Table 6. […] Kinases inhibited >65% at 1 μM for M27 were followed up with a dose response at DiscoveRx. The M27 had IC50 values <1 μM for almost the same set of kinases with exception of TXK, but with additional inhibition of BRK (PTK6).

Series [4] addresses ERBB4 (Homo sapiens (Human), UniProt Q15303). In words: ERBB4 Z'-LYTE kinase assay. Type of series: biochemical. The note with it: 1 h pre-incubation, Km ATP. The protocol:
as §1

In series [5] the target is BRK (PTK6) (Homo sapiens (Human), UniProt Q13882). As to the kind of experiment: DiscoveRx Kd dose response, BRK (PTK6). Type of series: binding. The procedure:
as §2

Series [6] concerns all available kinases (KINOMEscan). In words: KINOMEscan (DiscoveRx scanMAX) profiling, selectivity score. To be noted: single dose of 1 μM. Type of series: binding. The procedure: as §2
Series [7] has as its target T1, BMX. In words: DiscoveRx Kd dose response, BMX. Format: binding. The protocol: as §2
Series [8] concerns the target BTK (Homo sapiens (Human), UniProt Q06187). In words: BTK IMAP with ATP competition and variable pre-incubation. Format: biochemical. The procedure:
BTK enzyme activity with ATP competition was measured using the IMAP (immobilized metal ion affinity-based fluorescence polarization) assay. BTK enzyme (Millipore) was diluted to 16 nM, respectively in Kinase Reaction (KR) buffer (10 mM Tris-HCl, 10 mM MgCl2, 0.01% Tween-20, 0.1% NaN3, 1 mM DTT, 2 mM MnCl2, pH 7.5). Serial dilutions […] from 1 mM to 31.6 nM of test compounds were made in 100% DMSO. The dilutions in DMSO were then diluted 25-fold in KR-buffer. Final compound concentrations ranged from 10 μM to 0.316 nM. The assay is performed as follows: 5 μL/well of test compound in KR buffer (final DMSO concentration in the assay is 1%) was mixed with 5 µl/well of BTK or ITK enzyme (final concentration in the assay was 4 and 8 nM for BTK and ITK, respectively). Test compounds and kinase enzyme were pre-incubated 0, 30, or 60 min, before adding 5 μL/well of 200 nM Fluorescein labeled substrate peptide (Blk/Lyntide substrate, Molecular Devices) in KR-buffer. Final peptide substrate concentration in assay was 50 nM. The kinase assay was started by adding 5 μL/well of 20, 100, or 400 μM ATP in KR-buffer (final ATP concentration was 5, 25, or 100 μM ATP). Following incubation for 2h at room temperature the enzyme reaction was stopped by adding 40 μL/well IMAP Progressive Binding Solution (Molecular Devices), according to product instructions, using 60% lx buffer A and 40% lx buffer B with 800× diluted beads). After 60 min incubation at room temperature in the dark the FP signal was read. Fluorescence at 535 nm was measured using parallel and perpendicular filters to determine differences in rotation due to binding of the phosphorylated substrate peptide to the beads. Values were calculated as percentage of the difference in readout (AmPi) of the controls with and without ATP. IC50 values were determined by curve fitting of the experimental results using Dotmatics. […] M27 was tested in the BTK IMAP ATP competition assays with variable pre-incubation times (0, 30, and 60 minutes) and ATP concentrations (5, 25 and 100 μM). The results in Table 2 and FIG. 2 confirm that M27 is covalent inhibitors of BTK. […] Furthermore, there is loss of ATP competition following pre-incubation of BTK with M27, a result that is typical for compounds that bind covalently.

For series [9], the target named is CYP2D6 (Homo sapiens (Human), UniProt P10635). As to the kind of experiment: CYP inhibition, CYP2D6. Format: in vitro ADME.
In series [10] the target is CYP2C9 (Homo sapiens (Human), UniProt P11712). In words: CYP inhibition, CYP2C9. Format: in vitro ADME.
Series [11] deals with EGFR (Homo sapiens (Human), UniProt P00533). In words: EGFR Z'-LYTE kinase assay. Format: biochemical. The note with it: 1 h pre-incubation, Km ATP. The protocol: as §1
Series [12] concerns the target TEC (Homo sapiens (Human), UniProt P42680). In words: DiscoveRx Kd dose response, TEC. Format: binding. The protocol: as §2

BTK, sequence (Q06187 whole entry): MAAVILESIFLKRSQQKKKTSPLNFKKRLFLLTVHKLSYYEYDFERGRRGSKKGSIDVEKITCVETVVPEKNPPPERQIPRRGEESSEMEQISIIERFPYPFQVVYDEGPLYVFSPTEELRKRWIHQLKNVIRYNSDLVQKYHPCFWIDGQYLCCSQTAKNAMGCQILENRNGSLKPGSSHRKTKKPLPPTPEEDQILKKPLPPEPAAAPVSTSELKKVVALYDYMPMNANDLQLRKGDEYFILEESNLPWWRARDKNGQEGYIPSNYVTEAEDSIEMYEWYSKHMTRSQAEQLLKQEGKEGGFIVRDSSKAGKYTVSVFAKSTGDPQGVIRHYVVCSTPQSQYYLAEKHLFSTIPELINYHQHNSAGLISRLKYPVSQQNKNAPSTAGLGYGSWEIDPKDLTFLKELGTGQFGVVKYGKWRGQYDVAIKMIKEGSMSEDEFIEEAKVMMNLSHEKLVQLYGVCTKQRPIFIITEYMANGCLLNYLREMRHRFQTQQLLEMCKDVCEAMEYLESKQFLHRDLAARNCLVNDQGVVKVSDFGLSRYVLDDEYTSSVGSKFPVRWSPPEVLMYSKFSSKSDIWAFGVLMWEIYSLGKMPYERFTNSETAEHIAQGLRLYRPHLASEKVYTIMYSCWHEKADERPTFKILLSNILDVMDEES
T1 sequence (P51813 whole entry): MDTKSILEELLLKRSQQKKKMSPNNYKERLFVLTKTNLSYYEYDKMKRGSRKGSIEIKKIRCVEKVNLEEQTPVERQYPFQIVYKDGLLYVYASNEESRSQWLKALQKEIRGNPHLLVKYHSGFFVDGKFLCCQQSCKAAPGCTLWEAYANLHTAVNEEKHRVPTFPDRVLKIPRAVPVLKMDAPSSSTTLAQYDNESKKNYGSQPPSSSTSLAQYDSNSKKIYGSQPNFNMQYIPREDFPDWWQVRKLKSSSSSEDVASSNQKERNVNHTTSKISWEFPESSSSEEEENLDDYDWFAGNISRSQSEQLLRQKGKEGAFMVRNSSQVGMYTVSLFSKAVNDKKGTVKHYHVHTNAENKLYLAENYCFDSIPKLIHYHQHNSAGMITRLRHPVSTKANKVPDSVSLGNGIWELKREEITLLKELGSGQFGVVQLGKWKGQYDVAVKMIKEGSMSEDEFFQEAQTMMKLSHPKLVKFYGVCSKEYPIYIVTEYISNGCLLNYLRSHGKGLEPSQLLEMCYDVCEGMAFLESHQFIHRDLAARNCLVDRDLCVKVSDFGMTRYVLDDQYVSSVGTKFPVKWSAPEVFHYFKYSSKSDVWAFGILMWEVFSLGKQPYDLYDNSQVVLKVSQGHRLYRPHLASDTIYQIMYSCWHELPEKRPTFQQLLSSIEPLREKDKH
BRK (PTK6), sequence (Q13882 whole entry): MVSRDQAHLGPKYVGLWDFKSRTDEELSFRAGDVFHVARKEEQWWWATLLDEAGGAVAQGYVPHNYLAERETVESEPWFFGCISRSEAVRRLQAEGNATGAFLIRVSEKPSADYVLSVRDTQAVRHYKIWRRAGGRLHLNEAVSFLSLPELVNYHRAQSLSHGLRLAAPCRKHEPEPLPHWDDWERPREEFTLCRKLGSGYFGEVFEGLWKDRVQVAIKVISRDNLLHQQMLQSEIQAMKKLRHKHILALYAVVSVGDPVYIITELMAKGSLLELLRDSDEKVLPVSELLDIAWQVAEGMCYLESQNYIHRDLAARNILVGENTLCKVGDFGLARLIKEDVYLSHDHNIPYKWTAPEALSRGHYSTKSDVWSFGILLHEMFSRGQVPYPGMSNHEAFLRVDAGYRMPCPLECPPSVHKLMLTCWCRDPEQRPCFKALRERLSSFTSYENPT
CYP2D6, sequence (P10635 whole entry): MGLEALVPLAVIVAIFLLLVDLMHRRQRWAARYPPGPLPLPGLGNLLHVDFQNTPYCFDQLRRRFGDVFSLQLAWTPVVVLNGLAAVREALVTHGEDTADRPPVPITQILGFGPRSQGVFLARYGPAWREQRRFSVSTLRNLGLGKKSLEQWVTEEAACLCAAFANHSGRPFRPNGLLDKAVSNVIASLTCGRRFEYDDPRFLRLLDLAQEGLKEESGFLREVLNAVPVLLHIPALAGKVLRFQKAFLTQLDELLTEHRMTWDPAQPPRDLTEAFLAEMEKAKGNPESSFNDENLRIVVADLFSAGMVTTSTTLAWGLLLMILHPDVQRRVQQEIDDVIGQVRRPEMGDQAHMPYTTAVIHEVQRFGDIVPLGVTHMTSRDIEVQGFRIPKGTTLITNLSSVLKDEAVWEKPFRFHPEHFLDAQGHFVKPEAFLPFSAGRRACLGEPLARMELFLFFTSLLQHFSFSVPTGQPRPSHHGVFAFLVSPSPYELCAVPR
TEC, sequence (P42680 whole entry): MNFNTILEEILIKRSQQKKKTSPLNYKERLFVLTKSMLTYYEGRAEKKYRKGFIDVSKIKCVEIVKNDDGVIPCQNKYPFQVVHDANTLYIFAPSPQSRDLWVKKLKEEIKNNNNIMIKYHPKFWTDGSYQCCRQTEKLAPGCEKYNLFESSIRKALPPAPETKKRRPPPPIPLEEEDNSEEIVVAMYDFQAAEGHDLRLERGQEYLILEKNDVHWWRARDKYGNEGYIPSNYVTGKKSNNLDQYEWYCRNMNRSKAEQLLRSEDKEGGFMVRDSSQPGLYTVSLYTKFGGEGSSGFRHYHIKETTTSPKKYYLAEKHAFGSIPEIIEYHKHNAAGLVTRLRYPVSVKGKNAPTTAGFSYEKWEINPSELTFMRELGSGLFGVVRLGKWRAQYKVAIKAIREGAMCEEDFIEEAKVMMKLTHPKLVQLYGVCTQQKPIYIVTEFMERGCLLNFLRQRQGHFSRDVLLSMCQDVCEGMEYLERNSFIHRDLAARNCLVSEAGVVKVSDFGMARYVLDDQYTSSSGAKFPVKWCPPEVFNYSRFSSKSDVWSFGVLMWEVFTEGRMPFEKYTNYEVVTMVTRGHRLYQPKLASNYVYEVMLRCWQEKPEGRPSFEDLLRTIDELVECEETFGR
LIMK1, sequence (P53667 whole entry): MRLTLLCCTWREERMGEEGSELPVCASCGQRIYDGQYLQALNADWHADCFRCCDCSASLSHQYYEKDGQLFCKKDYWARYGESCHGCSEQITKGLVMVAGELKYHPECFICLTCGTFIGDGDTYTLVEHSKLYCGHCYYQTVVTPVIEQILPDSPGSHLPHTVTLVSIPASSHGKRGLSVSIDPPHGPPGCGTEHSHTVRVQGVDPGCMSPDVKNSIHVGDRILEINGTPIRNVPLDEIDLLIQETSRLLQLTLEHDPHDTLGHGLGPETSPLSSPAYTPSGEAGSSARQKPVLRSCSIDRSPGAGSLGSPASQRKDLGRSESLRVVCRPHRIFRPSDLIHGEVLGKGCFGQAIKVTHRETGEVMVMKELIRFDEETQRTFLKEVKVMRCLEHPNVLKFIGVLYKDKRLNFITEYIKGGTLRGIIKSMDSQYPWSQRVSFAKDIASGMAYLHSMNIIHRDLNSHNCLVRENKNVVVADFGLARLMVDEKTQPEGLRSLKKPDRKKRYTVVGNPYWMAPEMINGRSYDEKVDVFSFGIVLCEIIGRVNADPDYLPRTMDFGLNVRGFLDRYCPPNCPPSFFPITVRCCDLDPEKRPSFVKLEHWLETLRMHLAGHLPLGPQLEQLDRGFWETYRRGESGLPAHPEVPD
EGFR, sequence (P00533 25-1210): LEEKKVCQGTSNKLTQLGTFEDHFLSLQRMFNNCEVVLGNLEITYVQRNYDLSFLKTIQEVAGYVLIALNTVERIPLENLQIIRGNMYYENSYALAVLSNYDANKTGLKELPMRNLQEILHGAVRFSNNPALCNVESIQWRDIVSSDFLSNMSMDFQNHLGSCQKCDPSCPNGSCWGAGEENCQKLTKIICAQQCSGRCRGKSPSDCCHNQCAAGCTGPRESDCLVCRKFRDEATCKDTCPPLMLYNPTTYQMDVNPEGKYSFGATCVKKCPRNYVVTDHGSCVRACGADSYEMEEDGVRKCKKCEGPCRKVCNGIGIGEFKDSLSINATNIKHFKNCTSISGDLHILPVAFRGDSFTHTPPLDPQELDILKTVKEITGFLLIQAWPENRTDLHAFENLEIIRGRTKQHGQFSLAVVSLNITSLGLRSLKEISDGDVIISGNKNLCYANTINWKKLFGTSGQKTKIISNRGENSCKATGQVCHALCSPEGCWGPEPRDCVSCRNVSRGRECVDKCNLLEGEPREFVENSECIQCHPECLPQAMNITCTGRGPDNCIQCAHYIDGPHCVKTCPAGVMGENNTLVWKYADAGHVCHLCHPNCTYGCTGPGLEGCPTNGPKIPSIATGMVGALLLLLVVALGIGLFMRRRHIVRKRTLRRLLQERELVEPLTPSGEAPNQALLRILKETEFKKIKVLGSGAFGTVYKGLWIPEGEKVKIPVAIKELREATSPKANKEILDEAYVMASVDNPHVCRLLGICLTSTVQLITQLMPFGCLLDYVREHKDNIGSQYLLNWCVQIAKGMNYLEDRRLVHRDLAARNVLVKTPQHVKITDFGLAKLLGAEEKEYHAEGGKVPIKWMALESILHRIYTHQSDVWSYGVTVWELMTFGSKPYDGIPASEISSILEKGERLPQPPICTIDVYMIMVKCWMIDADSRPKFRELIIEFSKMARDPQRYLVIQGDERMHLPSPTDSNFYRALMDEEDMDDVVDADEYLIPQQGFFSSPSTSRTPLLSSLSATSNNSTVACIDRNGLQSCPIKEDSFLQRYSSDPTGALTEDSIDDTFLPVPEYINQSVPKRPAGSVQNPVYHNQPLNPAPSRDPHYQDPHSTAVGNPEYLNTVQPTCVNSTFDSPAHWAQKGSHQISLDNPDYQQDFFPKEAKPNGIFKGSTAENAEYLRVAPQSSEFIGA

For `CC#CC(=O)NCCCC(=O)c1nc(-c2ccc(C(=O)Nc3ccccn3)cc2)c2c(N)nccn12` [Formula (I), 4-(8-amino-3-(4-(but-2-ynamido)butanoyl)imidazo[1,5-a]pyrazin-1-yl)-N-(pyridin-2-yl)benzamide], the IC50 (usually the midpoint of a concentration-inhibition curve) in [1] came out at 15 ± 2 nM; in series [4], 343 ± 23 nM; in [8] (5 μM ATP, 0 minute pre-incubation), 27.3 nM; in series [8] (5 μM ATP, 30 minutes pre-incubation), 12.6 nM; in [8] (5 μM ATP, 60 minutes pre-incubation) it was 6.9 nM; in [8] (25 μM ATP, 0 minute pre-incubation), 72.4 nM. Besides, the IC50 in series [8] (25 μM ATP, 30 minutes pre-incubation) was 18.1 nM; in [8] (25 μM ATP, 60 minutes pre-incubation) it was 9.5 nM; in [8] (100 μM ATP, 0 minute pre-incubation), 101 nM; in series [8] (100 μM ATP, 30 minutes pre-incubation) it was 23.7 nM; in [8] (100 μM ATP, 60 minutes pre-incubation) it was 10.8 nM; in [11] it was above 10000 nM. The CYP3A4 induction entry in [2] was “weak inducer”. Further, the dissociation constant (Kd) (commonly the equilibrium constant for the complex coming apart) in series [3] worked out at 400 nM; in series [5], 150 nM; in series [7], 190 nM; in series [12], 40 nM. The “Selectivity Score S(10)” value in series [6] was determined as 0.005. For the same molecule, the “Selectivity Score S(35)” value in series [6] turned out to be 0.013. The CYP2D6 inhibition entry in series [9] is recorded as “does not inhibit”. In series [10], the CYP2C9 inhibition entry is listed as “weak inhibitor”.

These data come from patent US10858364B2, “Imidazopyrazine inhibitors of Bruton's tyrosine kinase” (Acerta Pharma B.V., priority 2016, dated 2020).
